{
  "source": "patent US20080241215A1",
  "about": "“LOCAL VASCULAR DELIVERY OF PROBUCOL ALONE OR IN COMBINATION WITH SIROLIMUS TO TREAT RESTENOSIS, VULNERABLE PLAQUE, AAA AND STROKE” (priority 2007, published 2008)",
  "key": {"[1]": {"tested_on": "patients undergoing coronary angioplasty", "experiment": "MVP randomized clinical trial (angiographic and clinical endpoints)", "assay_type": "in vivo, human", "source_text": "In addition, the invention enables the skilled practitioner to use probucol in conjunction with other percutaneous coronary interventions such as stenting if it is deemed appropriate. The present invention concerns the IVUS substudy from the MVP restenosis trial. MVP was a double-blind placebo-controlled randomized clinical trial with four study groups. The protocol was approved by the Montreal Heart Institute institutional review board. The MVP study design, inclusion and exclusion criteria have been previously described (N Engl J Med 1997; 365-372). Briefly, patients referred for elective coronary angioplasty were evaluated at least 30 days prior to their scheduled procedure. Eligible patients were asked to provide written informed consent. Patients were eligible if they were scheduled to undergo standard balloon angioplasty on at least one native coronary artery and had at least one de novo target lesion with luminal narrowing of fifty percent or more by caliper measurements. Beginning thirty days prior to scheduled angioplasty, patients were randomly assigned to receive either probucol alone, multivitamins alone, the combination of probucol and multivitamins, or placebo. Probucol 500 mg or matched placebo was administered twice daily. The multivitamin complex, consisting of vitamin E 700 IU, vitamin C 500 mg and beta-carotene 30,000 IU, or matched placebo was also administered in one tablet twice daily. […] Balloon angioplasty was performed according to standard techniques. […] The sequence of contrast injections with the exact degree of angulation was recorded and used for every angiogram. Coronary arteriograms (pre-, post-procedure, and final follow-up) were analyzed together using the Coronary Measurement System (CMS), as previously reported. Patient follow-up included clinical evaluation, exercise treadmill testing, blood chemistry, pill count and drug level measurements, and dietary assessment and intervention. Patients were readmitted for follow-up coronary angiography at five to seven months. Patients in whom arteriography was performed for clinical reasons before the fifth month returned for repeat angiographic examination at five to seven months if no definite angiographic restenosis was present on at least one dilated site. During follow-up, patients with recurrence or exacerbation of anginal symptoms were treated with medical therapy or revascularization procedures (reangioplasty or Coronary Bypass Surgery) as clinically indicated. Patients with angiographic restenosis (lesion>50%. at follow-up) without clinical evidence of ischemia were not subjected to further interventional procedures."}, "[2]": {"tested_on": "coronary arteries (angioplasty site)", "experiment": "IVUS substudy of the MVP restenosis trial", "assay_type": "in vivo, human", "conditions": "for EEM area / Lumen area / Wall area: per segment, mean ± SD", "method": "The present invention concerns the IVUS substudy from the MVP restenosis trial. MVP was a double-blind placebo-controlled randomized clinical trial with four study groups. The protocol was approved by the Montreal Heart Institute institutional review board. The MVP study design, inclusion and exclusion criteria have been previously described (N Engl J Med 1997; 365-372). Briefly, patients referred for elective coronary angioplasty were evaluated at least 30 days prior to their scheduled procedure. Eligible patients were asked to provide written informed consent. Patients were eligible if they were scheduled to undergo standard balloon angioplasty on at least one native coronary artery and had at least one de novo target lesion with luminal narrowing of fifty percent or more by caliper measurements.\nBeginning thirty days prior to scheduled angioplasty, patients were randomly assigned to receive either probucol alone, multivitamins alone, the combination of probucol and multivitamins, or placebo. Probucol 500 mg or matched placebo was administered twice daily. The multivitamin complex, consisting of vitamin E 700 IU, vitamin C 500 mg and beta-carotene 30,000 IU, or matched placebo was also administered in one tablet twice daily. All patients received an extra dose of probucol 1000 mg and/or vitamin E 2000 IU and/or matched placebos twelve hours before angioplasty, according to randomization assignment. […] All patients received aspirin 325 mg daily started at least thirty days before procedure and continued for the study period. Balloon angioplasty was performed according to standard techniques. Intracoronary nitroglycerin (0.3 mg) was given for each target artery for both pre- and post-dilatation angiography and at follow-up. The sequence of contrast injections with the exact degree of angulation was recorded and used for every angiogram. Coronary arteriograms (pre-, post-procedure, and final follow-up) were analyzed together using the Coronary Measurement System (CMS), as previously reported. Patient follow-up included clinical evaluation, exercise treadmill testing, blood chemistry, pill count and drug level measurements, and dietary assessment and intervention. Patients were readmitted for follow-up coronary angiography at five to seven months. Patients in whom arteriography was performed for clinical reasons before the fifth month returned for repeat angiographic examination at five to seven months if no definite angiographic restenosis was present on at least one dilated site. During follow-up, patients with recurrence or exacerbation of anginal symptoms were treated with medical therapy or revascularization procedures (reangioplasty or Coronary Bypass Surgery) as clinically indicated. Patients with angiographic restenosis (lesion>50%. at follow-up) without clinical evidence of ischemia were not subjected to further interventional procedures.\nIVUS examinations were performed using 30 MHZ, 3.5 French mechanical (1800 rpm) ultrasound catheters (Boston Scientific, Natick, Mass.) and a dedicated imaging console (Hewlett Packard, Andover, Mass.) (Curr Opin Cardiol 1994; 9:627-633). In six patients, both examinations were performed using 20 MHZ, 3.5 French 64-element IVUS catheters (Endosonics, Pleasanton, Calif.). IVUS studies were first performed after coronary angioplasty (after final balloon inflation) and then after follow-up angiography (before any subsequent intervention) and were always preceded by administration of intracoronary nitroglycerin (0.3 mg). IVUS imaging was monitored by an experienced cardiologist, but the angioplasty operator was blinded to ultrasound results to avoid altering standard balloon angioplasty practice. The IVUS catheter was advanced distal to the dilated site to an easily recognizable landmark, most often a side branch, which was noted and used for follow-up IVUS examination. One angiographic view was recorded on videotape before beginning pullback of the IVUS catheter. […]"}, "LDL": {"tested_on": "LDL", "experiment": "LDL peroxidation lag phase ex vivo (diene conjugates after addition of copper ions)", "assay_type": "biochemical, human", "conditions": "treatment for one month; compared with vitamins alone or the combination of probucol and vitamins; preliminary results"}, "[3]": {"conditions": "probucol given alone, compared to placebo"}, "[4]": {"conditions": "Follow-up Post PTCA (follow-up minus after angioplasty), listed as Probucol Alone"}, "[5]": {"conditions": "Follow-up Post PTCA, efficacy analysis in compliant patients"}, "[6]": {"conditions": "Follow-up, listed as Probucol Alone"}},
  "data": [
    {"smiles": "CC(C)(Sc1cc(C(C)(C)C)c(O)c(C(C)(C)C)c1)Sc1cc(C(C)(C)C)c(O)c(C(C)(C)C)c1", "note": "[probucol, 4,4′-([1-methylethylidene)bis(thio)]bis-[2,6-bis(1,1-dimethylethyl)phenol]]", "values": [
      {"measurement": "patients with restenosis", "setting": "[1]; MVP study", "result": "over twenty"},
      {"measurement": "reduction in the need for repeat angioplasty", "setting": "[1]; probucol given alone, at 6 month, compared to placebo", "result": "fifty-eight"},
      {"measurement": "reduction in angiographic lumen loss", "setting": "[1]; [3]", "result": "sixty-eight"},
      {"measurement": "reduction in restenosis rate per segment", "setting": "[1]; [3]", "result": "forty-seven"},
      {"measurement": "EEM area", "setting": "[2]; After Angioplasty", "result": "12.20 ± 4.66", "unit": "mm^2"},
      {"measurement": "Lumen area", "setting": "[2]; After Angioplasty", "result": "4.62 ± 1.59", "unit": "mm^2"},
      {"measurement": "Wall area", "setting": "[2]; After Angioplasty", "result": "7.57 ± 3.98", "unit": "mm^2"},
      {"measurement": "Lumen area, change", "setting": "[2]; Follow-up Post PTCA (follow-up minus after angioplasty)", "result": "−0.15 ± 1.70", "unit": "mm^2"},
      {"measurement": "EEM area, change", "setting": "[2]; [4]", "result": "1.74 ± 1.80", "unit": "mm^2"},
      {"measurement": "Wall area, change", "setting": "[2]; [4]", "result": "1.89 ± 1.87", "unit": "mm^2"},
      {"measurement": "EEM area, change", "setting": "[2]; Follow-up Post PTCA (follow-up minus after angioplasty), listed as probucol alone", "result": 1.74, "unit": "mm^2"},
      {"measurement": "EEM area, change", "setting": "[2]; [5]", "result": "1.74 ± 1.80", "unit": "mm^2"},
      {"measurement": "Lumen area, change", "setting": "[2]; [5]", "result": "−0.15 ± 1.70", "unit": "mm^2"},
      {"measurement": "Wall area, change", "setting": "[2]; [5]", "result": "1.89 ± 1.87", "unit": "mm^2"},
      {"measurement": "EEM area", "setting": "[2]; [6]", "result": "13.93 ± 4.74", "unit": "mm^2"},
      {"measurement": "Lumen area", "setting": "[2]; [6]", "result": "4.47 ± 1.93", "unit": "mm^2"},
      {"measurement": "Wall area", "setting": "[2]; [6]", "result": "9.46 ± 4.36", "unit": "mm^2"},
      {"measurement": "patients with an increase in EEM area of at least 1 mm^2 at follow-up", "setting": "[2]; in vivo", "result": 72.0, "unit": "%"},
      {"measurement": "increase in vessel enlargement", "setting": "[2]; probucol only compared with placebo", "result": "seven hundred-thirty"},
      {"measurement": "protection against LDL oxidation (lag phase for LDL peroxidation)", "setting": "LDL", "result": "significantly greater protection against LDL oxidation"}
    ]}
  ]
}
